# Reference: paper PMC6143478, “Lipophilic activated ester prodrug approach for drug delivery to the intestinal lymphatic system” (Journal of Controlled Release, 2018)
# Assay: Plasma pharmacokinetics following intravenous administration in rats
# Assay type: in vivo
# Settings: i.v., dose equivalent to 2.5 mg/kg BEX, rat; in words
# Method: The protocols for pharmacokinetic and biodistribution experiments in this study were reviewed and approved by the University of Nottingham Ethical Review Committee in accordance with the Animals [Scientific Procedures] Act 1986. Male Sprague Dawley rats (Charles River Laboratories, UK) weighing 350–380 g were used. The animals were housed in the Bio Support Unit, University of Nottingham. Continuous lymph collection was performed according to a protocol approved by the Institutional Animal Care and Use Committee at Rutgers, The State University of New Jersey. Male Sprague Dawley rats (Envigo, Inc., NJ, USA) weighing 300–350 g were used for the continuous lymph collection. […]
# Jugular vein cannulation surgery procedures were conducted under general anaesthesia for blood sampling. […] Blood samples of 250 μL volume were collected from the cannula at pre-determined time points following administration. […]
# The HPLC-UV system consisting of a separation module (Waters Alliance 2695) equipped with a UV detector (Waters 996) was used for analysis. […] BEX and its prodrugs were detected at 259 nm and RA and its prodrugs at 357 nm.
# Assessment of statistical significance of differences between two groups was conducted by means of two-tailed unpaired t-test. Statistical significance among three or more groups was assessed by means of a one-way ANOVA followed by Tukey's multiple comparisons test. […]
smiles,measurement,value
C=C(c1ccc(C(=O)OCC)cc1)c1cc2c(cc1C)C(C)(C)CCC2(C)C [prodrug 2],conversion of prodrug to BEX in plasma in vivo,rapidly converted to BEX
